{"source": "patent US20260308536A1", "about": "“NOVEL URICASE VARIANTS AND METHODS OF USE THEREOF” (priority 2023, published 2026)", "assay_type_in_all_cases": "biochemical", "key": {"[1]": {"molecular_target": "T1, PEGylated chimeric pig-baboon uricase variant dURC3, F75Q/K76N/K79N/T83Q/E90H/F96H/I100E/Y105D/V119K/F172Y/L260N/I262T, SEQ ID NO: 3 (Sus scrofa, UniProt P16164, E96H/F102H/F178Y/F81Q/I106E/I268T/K82N/K85N/L266N/R291K/S46T/T301S/T89Q/V125K/Y111D)", "T1 construct": "purified, PEGylated with 10 kDa mPEG-NHS, about 10 PEG per monomer", "T1 sequence (P16164 with tags, fused parts or gaps S46T/F81Q/K82N/K85N/T89Q/E96H/F102H/I106E/Y111D/V125K/F178Y/L266N/I268T/R291K/T301S)": "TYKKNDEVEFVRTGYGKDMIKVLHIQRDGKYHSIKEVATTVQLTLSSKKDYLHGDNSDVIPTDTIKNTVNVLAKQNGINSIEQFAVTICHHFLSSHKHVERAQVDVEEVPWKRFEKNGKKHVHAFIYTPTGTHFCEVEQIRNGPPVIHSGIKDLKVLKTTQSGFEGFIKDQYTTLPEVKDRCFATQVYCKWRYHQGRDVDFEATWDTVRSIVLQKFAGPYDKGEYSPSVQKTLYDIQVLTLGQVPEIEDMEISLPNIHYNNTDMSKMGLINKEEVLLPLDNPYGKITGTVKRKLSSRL", "experiment": "Michaelis Menten kinetics of uric acid conversion, PEGylated dURC3", "settings": "role: substrate, Table 4", "description": "(§1) PEGylation of the wild type chimeric pig-baboon uricase or its variants was performed by the following procedure: • (1) adding 50 fold molar excess methoxy-PEG-(CH2)5COO—NHS of 10 kDa in molecular weight (Chemical Name: Poly(oxy-1,2-ethanediyl), α-methyl-ω-{2-[(2,5-dioxo-1-pyrrolidinyl)oxy]-6-oxohexyloxy}; NOF America Corporation, Cat #SUNBRIGHT ME-100HS) to purified uricase protein on ice and incubating with stirring for one hour; • (2) verifying radius by DLS (14-15 nm radius ~=wild type); • (3) concentrating PEGylated protein using stirred cell with 50 kDa filter to 15 ml; • (4) loading the concentrated PEGylated protein onto a SUPERDEX 200 HILOAD 26/600 column and eluting with PBS; • (5) pooling fractions identified as being mono-disperse by DLS; • (6) concentrating the pooled fractions using a stirred cell with 50 kDa filter to 5 mg/ml.\n(§2) dURC3 and the wild type chimeric pig-baboon uricase were successfully PEGylated, with an average of about 10 PEG molecules conjugated to a uricase monomer, based on SDS-PAGE and size exclusion chromatography with multi-angle static light scattering (SEC-MALS) analysis. The activity quantified by Michaelis Menten kinetic analysis, as well as the melting temperature quantified by differential scanning fluorimetry, of PEGylated dURC3 and PEGylated wild type chimeric pig-baboon uricase was determined using the methods described in Example 1."}, "[2]": {"molecular_target": "T2, PEGylated chimeric pig-baboon uricase, wild type, SEQ ID NO: 5 (Sus scrofa, UniProt P16164, R291K/S46T/T301S)", "T2 construct": "His6 (C); made in house; host or cells: E. coli", "T2 sequence (P16164 with tags, fused parts or gaps S46T/R291K/T301S limits assumed)": "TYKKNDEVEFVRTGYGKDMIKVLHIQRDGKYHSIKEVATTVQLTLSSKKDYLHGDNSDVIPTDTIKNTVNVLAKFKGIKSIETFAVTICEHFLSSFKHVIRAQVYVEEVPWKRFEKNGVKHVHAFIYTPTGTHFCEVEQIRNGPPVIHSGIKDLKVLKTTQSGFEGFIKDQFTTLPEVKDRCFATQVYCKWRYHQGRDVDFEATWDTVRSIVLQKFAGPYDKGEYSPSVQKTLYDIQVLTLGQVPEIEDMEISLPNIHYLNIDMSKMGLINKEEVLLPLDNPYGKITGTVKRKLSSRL", "experiment": "Michaelis Menten kinetics of uric acid conversion, PEGylated wild type chimeric pig-baboon uricase", "settings": "role: substrate, Table 4", "description": "as §1, §2"}, "[3]": {"molecular_target": "T3, chimeric pig-baboon uricase variant 2 (dURC2), F75Q/K79E/T83Q/E90H/F96H/I100H/Y105D/V119K/Y127H/K155N/F172Y/L260N, SEQ ID NO: 2 (Sus scrofa, UniProt P16164, E96H/F102H/F178Y/F81Q/I106H/K161N/K85E/L266N/R291K/S46T/T301S/T89Q/V125K/Y111D/Y133H)", "T3 construct": "purified", "T3 sequence (P16164 with tags, fused parts or gaps S46T/F81Q/K85E/T89Q/E96H/F102H/I106H/Y111D/V125K/Y133H/K161N/F178Y/L266N/R291K/T301S)": "T1 sequence (P16164 with tags, fused parts or gaps S46T/F81Q/K82N/K85N/T89Q/E96H/F102H/I106E/Y111D/V125K/F178Y/L266N/I268T/R291K/T301S) with N76K, N79E, E100H, Y127H, K155N, T262I", "experiment": "Michaelis Menten kinetics of uric acid conversion, dURC2", "settings": "role: substrate; purified enzyme, non-linear regression; Table 3", "description": "(§3) Variants 1 (dURC1) and 3 (dURC3) were identified as possible lead candidates. Besides the mutations according to the library design, i.e., the designed mutations of F75Q; K79N; T83Q; E90H; F96H; I100E; Y105D; V119K; F172Y; L260N; and I262T, dURC3 comprised an off-position amino acid mutation K76N. An off-position amino acid mutation is defined as having a non-designed amino acid at a non-target site. […] Specifically, in the dURC1 backbone, the following mutations were tested separately: L154T; K155D; K155N; L157H; L157T; T159E; T159Q; and S162D; and in the dURC3 backbone, the K155N mutation was tested. […] The characteristics, including yield, activity, melting temperature measured by DSF, temperature at which 50% of normal activity was lost after heating measured by heat stress activity assay, Michaelis-Menten kinetics parameters, of variants 1, 2, 3, and 4 (i.e., dURC1, dURC2, dURC3 and dURC4), as well as the wild type chimeric pig-baboon uricase, are summarized in Table 2. The amino acid sequences of dURC1, dURC2, dURC3 and dURC4 are shown as SEQ ID NO: 1, 2, 3, and 4, respectively.\n(§4) The activity of the purified enzymes was quantified by Michaelis Menten kinetic analysis, using the solution phase microplate assay across a range of substrate concentrations (FIG. 4B)."}, "[4]": {"molecular_target": "T4, chimeric pig-baboon uricase variant 1 (dURC1), F75Q/K79E/T83Q/E90H/F96H/I100H/Y105D/V119K/Y127H/F172Y/L260N, SEQ ID NO: 1 (Sus scrofa, UniProt P16164, E96H/F102H/F178Y/F81Q/I106H/K85E/L266N/R291K/S46T/T301S/T89Q/V125K/Y111D/Y133H)", "T4 construct": "purified", "T4 sequence (P16164 with tags, fused parts or gaps S46T/F81Q/K85E/T89Q/E96H/F102H/I106H/Y111D/V125K/Y133H/F178Y/L266N/R291K/T301S)": "T1 sequence (P16164 with tags, fused parts or gaps S46T/F81Q/K82N/K85N/T89Q/E96H/F102H/I106E/Y111D/V125K/F178Y/L266N/I268T/R291K/T301S) with N76K, N79E, E100H, Y127H, T262I", "experiment": "Michaelis Menten kinetics of uric acid conversion, dURC1", "settings": "role: substrate; purified enzyme, non-linear regression; Table 3", "description": "as §3, §4"}, "[5]": {"molecular_target": "T5, chimeric pig-baboon uricase, wild type, SEQ ID NO: 5 (Sus scrofa, UniProt P16164, R291K/S46T/T301S)", "T5 construct": "His6 (C); made in house; host or cells: E. coli", "T5 sequence (P16164 with tags, fused parts or gaps S46T/R291K/T301S)": "T2 sequence (P16164 with tags, fused parts or gaps S46T/R291K/T301S limits assumed)", "experiment": "Michaelis Menten kinetics of uric acid conversion, wild type chimeric pig-baboon uricase", "settings": "role: substrate; purified enzyme, non-linear regression; Table 3", "from_the_text": "The monomeric form of the wild type chimeric pig-baboon uricase comprises the amino acid sequence of SEQ ID NO:5, where threonine is residue #1. The specified mutations in the chimeric pig-baboon uricase variants of this example are indexed to threonine as residue #1, as in SEQ ID NO:5. […] The expression vector pET-26b(+) encodes a His tag containing 6 histidine residues at the C-terminus of the inserted uricase gene.\nas §4"}, "[6]": {"molecular_target": "T6, chimeric pig-baboon uricase variant 3 (dURC3), F75Q/K76N/K79N/T83Q/E90H/F96H/I100E/Y105D/V119K/F172Y/L260N/I262T, SEQ ID NO: 3 (Sus scrofa, UniProt P16164, E96H/F102H/F178Y/F81Q/I106E/I268T/K82N/K85N/L266N/R291K/S46T/T301S/T89Q/V125K/Y111D)", "T6 construct": "purified", "T6 sequence (P16164 with tags, fused parts or gaps S46T/F81Q/K82N/K85N/T89Q/E96H/F102H/I106E/Y111D/V125K/F178Y/L266N/I268T/R291K/T301S)": "T1 sequence (P16164 with tags, fused parts or gaps S46T/F81Q/K82N/K85N/T89Q/E96H/F102H/I106E/Y111D/V125K/F178Y/L266N/I268T/R291K/T301S)", "experiment": "Michaelis Menten kinetics of uric acid conversion, dURC3", "settings": "role: substrate", "description": "An off-position amino acid mutation is defined as having a non-designed amino acid at a non-target site. […] Specifically, in the dURC1 backbone, the following mutations were tested separately: L154T; K155D; K155N; L157H; L157T; T159E; T159Q; and S162D; and in the dURC3 backbone, the K155N mutation was tested. […] The amino acid sequences of dURC1, dURC2, dURC3 and dURC4 are shown as SEQ ID NO: 1, 2, 3, and 4, respectively.\nas §4"}, "[7]": {"molecular_target": "T7, chimeric pig-baboon uricase variant 4 (dURC4), F75Q/K76N/K79N/T83Q/E90H/F96H/I100E/Y105D/V119K/K155N/F172Y/L260N/I262T, SEQ ID NO: 4 (Sus scrofa, UniProt P16164, E96H/F102H/F178Y/F81Q/I106E/I268T/K161N/K82N/K85N/L266N/R291K/S46T/T301S/T89Q/V125K/Y111D)", "T7 construct": "purified", "T7 sequence (P16164 with tags, fused parts or gaps S46T/F81Q/K82N/K85N/T89Q/E96H/F102H/I106E/Y111D/V125K/K161N/F178Y/L266N/I268T/R291K/T301S)": "T1 sequence (P16164 with tags, fused parts or gaps S46T/F81Q/K82N/K85N/T89Q/E96H/F102H/I106E/Y111D/V125K/F178Y/L266N/I268T/R291K/T301S) with K155N", "experiment": "Michaelis Menten kinetics of uric acid conversion, dURC4", "settings": "role: substrate; purified enzyme, non-linear regression; Table 3", "description": "as §3, §4"}}, "note": "Positions count from the first letter of the chain named.", "data": [{"smiles": "O=c1[nH]c(=O)c2[nH]c(=O)[nH]c2[nH]1", "note": "[uric acid]", "values": [{"measurement": "Vmax", "setting": "[1]", "value": "67 Δabs/min"}, {"measurement": "Vmax", "setting": "[2]", "value": "170 Δabs/min"}, {"measurement": "Apparent kcat", "setting": "[3]", "value": "34 ± 1", "unit": "arbitrary units"}, {"measurement": "Apparent kcat", "setting": "[4]", "value": "43 ± 2", "unit": "arbitrary units"}, {"measurement": "Apparent kcat", "setting": "[5]", "value": "30 ± 1", "unit": "arbitrary units"}, {"measurement": "higher apparent kcat compared to the wild type", "setting": "[6]; dURC3 relative to wild type chimeric pig-baboon uricase", "value": 33, "unit": "%"}, {"measurement": "Apparent kcat", "setting": "[6]; purified enzyme, non-linear regression, Table 3", "value": "40 ± 2", "unit": "arbitrary units"}, {"measurement": "Apparent kcat", "setting": "[7]", "value": "28.0 ± 0.5", "unit": "arbitrary units"}]}]}
